The test system of series [1] is PDVC57 tumors. As to the kind of experiment: Intratumoral CPT retention (CPT recovered from tumors). The conditions noted are these: 240 h (10 days) after intratumoral injection, 0.25 mg CPT. Type of series: in vivo, C57BL/6J mice. Here is the method:
(§1) All animal procedures were conducted in accordance with Yale Institutional Animal Care and Use Committee guidelines. Mice were housed in the Yale Animal Resource Center and afforded free access to food and water. Wild-type C57BL/6J mice were obtained from The Jackson Laboratory. To prepare the animals for tumor transplantation, the dorsal right flank was shaved using electric clippers. PDVC57 cells were harvested, washed, and resuspended in 1×PBS on ice at a concentration of 5.0×10^7 cells per mL. Mice were then anesthetized in an induction chamber with […] in propylene glycol and the dorsal right flank injected intradermally/subcutaneously with 5.0×10^6 cells in 100 μl using a 27-gauge syringe, forming a small bleb at the site of injection.
When tumors reached a diameter of about 5 mm, they were treated with either free CPT (0.25 mg of CPT/50 μL of intralipid), NNP-CPT (0.25 mg of CPT/50 μL of PBS), or BNP-CPT (0.25 mg of CPT/50 μL of PBS). Following injection, tumors were harvested and lyophilized at 0, 48, and 240 h. […] The homogenate was centrifuged at 10,000×g for 5 min to pellet residual tumor and debris, the supernatant removed, and CPT quantified using its intrinsic fluorescence as described above.

The next series has as its system PDVC57 cells. Briefly: Control cytotoxicity assay: solutions not aspirated before addition of cells. It counts as cell-based, murine. As to the method:
After 48 hours, cell viability was assessed using Cell-Titer Glo. (8D) PDVC7 cells were harvested and seeded on a 96-well plate (5000 cells/well). […] FIG. 8B is a control for assay (8A) in which there is no poly-l-lysine attached to the plate.
A simulated, protein-rich tumor matrix was created by coating a 96 wellplate with 0.01% poly-l-lysine in 1×PBS. […] […] After 48 hours, cell viability was assessed using Cell-Titer Glo. PDVC7 cells were harvested and seeded on a 96-well plate (5000 cells/well). […] After 48 hours, cell viability was assessed using Cell-Titer Glo. A control for assay in which the poly-l-lysine coated plates are incubated with blank (unloaded) NP, free CPT, NNP-CPT or BNP-CPT, but these solutions are not aspirated before the addition of PDVC57 cells.

The subject of series [2] is PDVC57 tumors. Briefly: In vivo assessment of CPT NP efficacy. The conditions noted are these: single dose of 0.25 mg of CPT by intratumoral injection. Here is the method:
as §1
PDVC57 tumors were induced as described above. When tumors attained a diameter of approximately 5 mm, they were injected with either blank BNPs (1.99 mg/50 μL of PBS), IL-CPT (0.25 mg of CPT/50 μL), NNP-CPT (0.25 mg of CPT/50 μL of PBS), or BNP-CPT (0.25 mg of CPT/50 μL of PBS) using a 27-gauge needle, which was positioned in the center of the tumor. The entire treatment volume was administered intratumorally over 15 s. The needle was then held in this position for 10 s and withdrawn slowly in order to prevent leakage of drug from the injection site.

The structures appear in SMILES notation.

For the compound `CC[C@@]1(O)C(=O)OCc2c1cc1n(c2=O)Cc2cc3ccccc3nc2-1` [free CPT, Camptothecin], the “percentage of the injected CPT recovered from tumors” value in the series on PDVC57 tumors [1] is “undetectable”. Further, the “Killing of PDVC57 (viability)” value in the series on PDVC57 cells is recorded as “comparable killing”. The “Systemic toxicity in pilot studies” value in the series on PDVC57 tumors [2] is “without clinical evidence of systemic toxicity”.

Values taken from US20240423972A1, “CHEMOTHERAPEUTIC BIOADHESIVE PARTICLES WITH IMMUNOSTIMULATORY MOLECULES FOR CANCER TREATMENT” (priority 2021, published 2024).
